Key:
[1] = system: cynomulgus monkey; test: Emetic action test in cynomulgus monkey; conditions: suspended in 0.5% aqueous methyl cellulose, administered nasally; emesis observed for 24 hours; 3 or 4 monkeys per dose
Description: The compound to be tested was suspended in 0.5% aqueous methyl cellulose solution (5 ml/Kg), and administered nasally.
With respect to each dose, each administered to 3 or 4 monkeys, and a dose in which emesis had not been admitted in all monkeys was made a maximum non-emesis dose.

[2] = system: pulmonary neutrophil infiltration; test: Pulmonary neutrophil infiltration-inhibiting activity in SD rats (LPS inhalation, MPO activity in BALF); type: in vivo; conditions: @3 mg/Kg, orally 15 minutes before LPS inhalation; BAL 4 hours after LPS; MPO activity as index; inhibiting rate relative to control
Description: Inhalation of lipopolysaccharide (hereinafter abbreviated to as LPS) was carried out by modifying the method of Moraes et al. (Br. J. Pharmacol., 123, 631 (1998)). SD rats (male, 5-weeks old, supplied by CHARLES RIVER LABORATORIES JAPAN, INC.) fasted 24 hours before administration of a compound were kept in a plastic cage, and inhalated LPS (L2880-500MG, available from SIGMA Inc.) (0.1 mg/ml) dissolved in physiological saline for 30 minutes. An ultrasonic nebulizer (NE-U12, manufactured by Omron Corporation) was used for inhalation.
A compound to be tested is dissolved (10 ml/Kg) in mixed solution of polyethylene glycol (hereinafter abbreviated to as PEG) and water, and orally administered 15 minutes before the inhalation of LPS. For the control group, 50% PEG solution was administered.
Bronchoalveolar lavage (hereinafter abbreviated to as BAL) was carried out as mentioned below 4 hours after the inhalation of LPS. […] 3.5 ml of physiological saline containing heparin (1 U/ml) was injected by using a disposable injection syringe (5 ml volume, manufactured by Terumo Corporation), and immediately recovered. This operation was repeated four times to obtain a bronchioalveolar lavage fluid (hereinafter abbreviated to as BALF). BALF was centrifugated (at 2500 rpm, 10 minutes, 4° C.), and 1 ml of 0.5% hexadecyltrimethylammonium bromide (030-02105, available from Wako Pure Chemical Industries, Ltd.) was added to the precipitated cells. Thereafter, a freeze-thaw operation (−80° C./37° C.) was repeated three times to destroy the cells.
As an index of a number of neutrophil, measurement of myeloperoxidase (hereinafter abbreviated to as MPO) activity was carried out as follows. Measurement of MPO activity was carried out by partially modifying the method of Krawisz et al. (GASTROENTEROLOGY, 1344 (1984)). To cell dissolved solution was added 50 mM phosphate buffer solution (pH 6.0) containing o-dianisidine hydrochloride (0.2 mg/ml) and 0.005% hydrogen peroxide, and change in absorbance at 450 nm was measured. As a MPO standard substance, MPO from human sputum (available from Elastin Products Company Inc.) was used. Measurement of absorbance was carried out by using a Microplate Reader (MTP-32, manufactured by Corona Electric Co., Ltd.).
An inhibiting rate of the compound to be tested relative to the control was calculated.

[3] = target: PDE4; test: Measurement of PDE4 enzyme inhibiting action; type: biochemical, human; conditions: PDE4 enzyme solution from polymorphonuclear leukocytes of healthy volunteer; 0.2 μM [3H]cAMP, 30° C., 30 minutes; read-out: PDE4 inhibition IC50 value
Description: Preparation of a PDE4 enzyme solution was carried out according to the method of Cooper et al. (Br. J. Pharmacol., 126, 1863 (1999)) by modifying a part thereof. Heparin-treated peripheral blood from healthy volunteer was stratified by a blood cell separating solution (Polymorphprep™, available from AXIS-SHIELD PoC AS CO.), and centrifugation was carried out at 20° C. with 1900 rpm for 27 minutes to obtain polymorphonuclear leukocytes. The polymorphonuclear leukocytes were washed with a Hanks' balanced salt solution, then, a mixed solution comprising 70% of 10 mM 3-morpholinopropane sulfonic acid buffer solution (pH 7.4) containing 1 mM EGTA, 1 mM magnesium acetate and 5 mM dithiothreitol and 30% of ethylene glycol was added thereto to dissolve the same under ice-cooling, and the obtained cell dissolved solution was used as a PDE4 enzyme solution.
Measurement of PDE4 activity was carried out according to the method of Owens, et al. (Biochem. J., 326, 53 (1997)) by modifying a part thereof. The PDE4 enzyme solution was incubated with a compound to be tested dissolved in dimethylsulfoxide in 80 mM Tris-HCl buffer solution (pH 7.4) containing 0.2 μM [^3H] cAMP, 0.1 mM cGMP, 20 mM MgCl2 and 12 mM 2-mercaptoethanol at 30° C. for 30 minutes. Trifluoroacetic acid (final concentration: 1%) was added to the mixture to stop the reaction, and the reaction mixture was added to neutral alumina column (BOND ELUT™, available from VARIAN INC.). After the column was washed with 100 mM Tris-HCl buffer solution (pH 8.0), [^3H] 5′-AMP was eluted with 2N sodium hydroxide solution, and radioactivity of the eluent was measured by a liquid scintillation analyzer.
A concentration of the compound to be tested which inhibits 50% of PDE4 activity was calculated from the relation between the concentration of the compound to be tested which had been added and PDE4 activity as an IC50 value.

SMILES	Monkey Maximum non-emesis dose [1] [mg/kg]	melting point	Rat pulmonary neutrophil infiltration-inhibiting activity [2] [%]	IC50 [3] [nM]
COCCc1c(-c2ccc(OC(F)F)c(OC3CC3)c2)[nH]c2cn[nH]c(=O)c12 [Example 66, 2-(3-Cyclopropoxy-4-difluoromethoxyphenyl)-3-(2-methoxyethyl)-1,5-dihydropyrrolo[2,3-d]pyridazin-4-one]	>10	215 to 217 °C	69	–
CCOCc1c(-c2ccc(OC(F)F)c(OC3CC3)c2)[nH]c2cn[nH]c(=O)c12 [Example 12, 2-(3-Cyclopropoxy-4-difluoromethoxyphenyl)-3-ethoxymethyl-1,5-dihydropyrrolo[2,3-d]pyridazin-4-one]	3	141 to 143 °C	–	4.6
CC#CCc1c(-c2ccc(OC(F)F)c(OC3CC3)c2)[nH]c2cn[nH]c(=O)c12 [Example 72, 3-(2-Butynyl)-2-(3-cyclopropoxy-4-difluoromethoxyphenyl)-1,5-dihydropyrrolo[2,3-d]pyridazin-4-one]	>10	231 to 236 °C	76	–
O=c1[nH]ncc2[nH]c(-c3ccc(OC(F)F)c(OC4CC4)c3)c(COCCF)c12 [Example 61, 2-(3-Cyclopropoxy-4-difluoromethoxyphenyl)-3-(2-fluoroethoxymethyl)-1,5-dihydropyrrolo[2,3-d]pyridazin-4-one]	–	–	59	–
O=c1[nH]ncc2[nH]c(-c3ccc(OC(F)F)c(OC4CC4)c3)c(Cc3ccccc3F)c12 [Example 22, 2-(3-Cyclopropoxy-4-difluoromethoxyphenyl)-3-(2-fluorobenzyl)-1,5-dihydropyrrolo[2,3-d]pyridazin-4-one]	–	202 to 204 °C	78	–
O=C(Nc1c(Cl)cncc1Cl)c1ccc(OC(F)F)c(OCC2CC2)c1 [compound A, N-(3,5-dichloro-4-pyridyl)-3-cyclopropylmethoxy-4-difluoromethoxybenzamide, reference compound]	0.1	–	–	–
CC(C)COCc1c(-c2ccc(OC(F)F)c(OC3CC3)c2)[nH]c2cn[nH]c(=O)c12 [Example 62, 2-(3-Cyclopropoxy-4-difluoromethoxyphenyl)-3-isobutoxymethyl-1,5-dihydropyrrolo[2,3-d]pyridazin-4-one]	>10	162 to 164 °C	–	0.41
O=c1[nH]ncc2[nH]c(-c3ccc(OC(F)F)c(OC4CC4)c3)c(CC3CC3)c12 [Example 15, 2-(3-Cyclopropoxy-4-difluoromethoxyphenyl)-3-cyclopropylmethyl-1,5-dihydropyrrolo[2,3-d]pyridazin-4-one]	–	204 to 206 °C	73	–
CCCCCCc1c(-c2ccc(OC(F)F)c(OC3CC3)c2)[nH]c2cn[nH]c(=O)c12 [Example 69, 2-(3-Cyclopropoxy-4-difluoromethoxyphenyl)-3-hexyl-1,5-dihydropyrrolo[2,3-d]pyridazin-4-one]	–	186 to 188 °C	–	0.38
COc1ccc(-c2cc3c(=O)[nH]ncc3[nH]2)c2c1OC1(CCCC1)C2 [Example 50, 2-(2,3-Dihydro-7-methoxybenzofuran-2-spiro-1′-cyclopentan-4-yl)-1,5-dihydropyrrolo[2,3-d]pyridazin-4-one]	–	265 °C (dec.)	–	16
CC(C)OCc1c(-c2ccc(OC(F)F)c(OC3CC3)c2)[nH]c2cn[nH]c(=O)c12 [Example 60, 2-(3-Cyclopropoxy-4-difluoromethoxyphenyl)-3-isopropoxymethyl-1,5-dihydropyrrolo[2,3-d]pyridazin-4-one]	–	196 to 197 °C	–	3
CCc1c(-c2ccc(OC(F)F)c(OC3CC3)c2)[nH]c2cn[nH]c(=O)c12 [Example 5, 2-(3-Cyclopropoxy-4-difluoromethoxyphenyl)-3-ethyl-1,5-dihydropyrrolo[2,3-d]pyridazin-4-one]	>30	223 to 225 °C	–	3.4
O=c1[nH]ncc2[nH]c(-c3ccc(OC(F)F)c(OCC4CC4)c3)c(Cl)c12 [Example 36, 3-Chloro-2-(3-cyclopropylmethoxy-4-difluoromethoxyphenyl)-1,5-dihydropyrrolo[2,3-d]pyridazin-4-one]	–	258 to 260 °C	–	7.9
O=c1[nH]ncc2[nH]c(-c3ccc(OC(F)F)c(OC4CCC4)c3)cc12 [Example 31, 2-(3-Cyclobutoxy-4-difluoromethoxyphenyl)-1,5-dihydropyrrolo[2,3-d]pyridazin-4-one]	–	289 to 291 °C	–	9.1

Source: patent US8450319B2, “Pyrrolopyridazinone compound” (Ube Industries, Ltd., priority 2006, dated 2013)
